Earlier results, collected in paper PMC6278306, “Anti-Leishmanial and Cytotoxic Activities of a Series of Maleimides: Synthesis, Biological Evaluation and Structure-Activity Relationship” (Molecules, 2018).

Test system: 10 fungi
Set-up: method as in PMID 21481593
Settings: against 10 fungi; cited from earlier work

| Structure (SMILES) | MIC |
| --- | --- |
| O=C1C=CC(=O)N1CCCCc1ccccc1 [N-(4-phenylbutyl)-maleimide] | 0.48 to 15.63 µg/mL |
| CCCCN1C(=O)C=CC1=O [N-butyl-maleimide] | 0.48 to 15.63 µg/mL |
